In patent US6172065A, “Urea and thiourea derivatives of substituted quinoxaline 2,3-diones as glutamate receptor antagonists” (Warner-Lambert Company, priority 1998, dated 2001):

Experiments:
[1] = target: kainate site (non-NMDA receptor); experiment: Kainate site (non-NMDA receptor) binding affinity (London and Coyle method); settings: Table 1, KA (kainate)
[2] = target: T1, glycine site of the NMDA receptor (Rattus norvegicus, UniProt P35439); experiment: Glycine site of the NMDA receptor binding affinity (Jones et al. method); settings: Table 1, GLY (glycine site of NMDA receptor)
T1 construct: from tissue

AMPA receptors = experiment: AMPA receptor binding affinity (Honore et al. method); settings: Table 1, AMPA

IC50 KA [1]	IC50 [2]	IC50 (AMPA receptors)	Compound
1.12 µM	5 nM	170 nM	COc1ccc(NC(=O)N(C)Cc2c(C)c([N+](=O)[O-])cc3[nH]c(=O)c(=O)[nH]c23)cc1 [Compound 2, 3-(4-Methoxy-phenyl)-1-methyl-1-(6-methyl-7-nitro-2,3-dioxo-1,2,3,4-tetrahydro-quinoxalin-5-ylmethyl)-urea]
7.50 µM	10 nM	2850 nM	Cc1c([N+](=O)[O-])cc2[nH]c(=O)c(=O)[nH]c2c1CN(C)C(=O)Nc1ccccc1C(F)(F)F [Compound 6, 1-Methyl-1-(6-methyl-7-nitro-2,3-dioxo-1,2,3,4-tetrahydro-quinoxalin-5-ylmethyl)-3-(2-trifluoromethyl-phenyl)-urea]
0.82 µM	8 nM	130 nM	Cc1c([N+](=O)[O-])cc2[nH]c(=O)c(=O)[nH]c2c1CN(C)C(=O)Nc1ccccc1 [Compound 1, 1-Methyl-1-(6-methyl-7-nitro-2,3-dioxo-1,2,3,4-tetrahydro-quinoxalin-5-ylmethyl)-3-phenyl-urea]
6.7 µM	20 nM	3600 nM	Cc1ccc(NC(=O)N(C)Cc2c(C)c([N+](=O)[O-])cc3[nH]c(=O)c(=O)[nH]c23)c(C)c1 [Compound 4, 3-(2,4-Dimethyl-phenyl)-1-methyl-1-(6-methyl-7-nitro-2,3-dioxo-1,2,3,4-tetrahydro-quinoxalin-5-ylmethyl)-urea]
9.54 µM	10 nM	3000 nM	COc1ccc(OC)c(NC(=O)N(C)Cc2c(C)c([N+](=O)[O-])cc3[nH]c(=O)c(=O)[nH]c23)c1 [Compound 5, 3-(2,5-Dimethoxy-phenyl)-1-methyl-1-(6-methyl-7-nitro-2,3-dioxo-1,2,3,4-tetrahydro-quinoxalin-5-ylmethyl)-urea]
2.54 µM	40 nM	230 nM	COc1ccc(NC(=S)N(C)Cc2c(C)c([N+](=O)[O-])cc3[nH]c(=O)c(=O)[nH]c23)cc1 [Compound 3, 3-(4-Methoxy-phenyl)-1-methyl-1-(6-methyl-7-nitro-2,3-dioxo-1,2,3,4-tetrahydro-quinoxalin-5-ylmethyl)-thiourea]
18.4 µM	10 nM	4110 nM	CCOC(=O)c1ccc(NC(=O)N(C)Cc2c(C)c([N+](=O)[O-])cc3[nH]c(=O)c(=O)[nH]c23)cc1 [Compound 7, 4-(3-Methyl-3-(6-methyl-7-nitro-2,3-dioxo-1,2,3,4-tetrahydro-quinoxalin-5-ylmethyl)ureido)-benzoic acid ethyl ester]
